Source: patent USRE41614E1, “Synthetic analogs of ecteinascidin-743” (President and Fellows of Harvard College, priority 1998, dated 2010)
Values after ≈ are worked out from the molar mass of the structure shown. Read-outs that look alike come from different tables or passages of the source.

Experiments:
Type in all cases: cell-based
[1] = tested on: A-549 (Lung) human cancer cell line; assay: In vitro anti-tumor screen, cancer cell antiproliferative assay, A-549
Protocol: (§1) The following tables summarize the activity of all the synthetic derivatives. […] Lower values represent higher activity.
(§2) ^9 Cancer cell antiproliferative assays were performed by Dr. Takashi Owa, a postdoctoral fellow in the Stuart L. Schreiber research group.

[2] = tested on: A375 (Melanoma) human cancer cell line; assay: In vitro anti-tumor screen, cancer cell antiproliferative assay, A375; conditions: for IC50: Homo sapiens
Protocol: as §1, §2

[3] = tested on: HCT116 (Colon) human cancer cell line; assay: In vitro anti-tumor screen, cancer cell antiproliferative assay, HCT116
Protocol: as §1, §2

[4] = tested on: PC-3 (Prostate) human cancer cell line; assay: In vitro anti-tumor screen, cancer cell antiproliferative assay, PC-3; conditions: for IC50: Homo sapiens
Protocol: as §1, §2

[5] = A549, Table 8, additional biological data, first value of cell, read-out: IC50 (ng/mL) Lung
[6] = A-375, Table 8, additional biological data, third value of cell, read-out: IC50 (ng/mL) Melan.
[7] = HCT-116, Table 8, additional biological data, second value of cell, read-out: IC50 (ng/mL) Colon
[8] = Table 8, additional biological data, fourth value of cell, read-out: IC50 (ng/mL) Prost.
[9] = A549, Table 6, A-ring substitution at X2, lung, read-out: IC50 A-549
[10] = Table 5, B-ring substitution at X1, lung, >100 ng/mL considered inactive, read-out: IC50 A-549
[11] = A-375, Table 5, B-ring substitution at X1, melanoma, >100 ng/mL considered inactive, read-out: IC50 A375
[12] = HCT-116, Table 5, B-ring substitution at X1, colon, >100 ng/mL considered inactive, read-out: IC50 HCT-116
[13] = HCT-116, Table 6, A-ring substitution at X2, colon, read-out: IC50 HCT 116
[14] = Table 5, B-ring substitution at X1, prostate, >100 ng/mL considered inactive, read-out: IC50 PC-3
[15] = A-375, Table 6, A-ring substitution at X2, melanoma, read-out: IC50 A375
[16] = Table 6, A-ring substitution at X2, prostate, read-out: IC50 PC-3

SMILES	IC50 [1, 5] [ng/mL]	IC50 [2, 6] [ng/mL]	IC50 [3, 7] [ng/mL]	IC50 [4, 8] [ng/mL]	IC50 [1, 10] [ng/mL]	IC50 [2, 11] [ng/mL]	IC50 [3, 12] [ng/mL]	IC50 [4, 14] [ng/mL]	further results
COC1=C(C)C(=O)C2=C(C1=O)[C@@H]1[C@@H]3Cc4c(OC(C)=O)c(C)c5c(c4[C@H](CN4C(=O)c6ccccc6C4=O)N3[C@@H](C#N)[C@H](C2)N1C)OCO5	1.1 (≈ 1.65 nM)	0.3 (≈ 0.451 nM)	0.53 (≈ 0.797 nM)	0.45 (≈ 0.677 nM)					
COCOc1c(OC)c(C)cc2c1[C@@H]1[C@@H]3Cc4c(OC(C)=O)c(C)c5c(c4[C@H](CN4C(=O)c6ccccc6C4=O)N3[C@@H](C#N)[C@H](C2)N1C)OCO5	160 (≈ 230 nM)	46 (≈ 66.2 nM)	51 (≈ 73.4 nM)	68 (≈ 97.9 nM)					
COc1c(C)cc2c(c1O)[C@H]1N[C@@H](C2)[C@H](C#N)N2[C@@H](CN3C(=O)c4ccccc4C3=O)c3c(c(OC(C)=O)c(C)c4c3OCO4)C[C@@H]12	21 (≈ 33 nM)	1.9 (≈ 2.98 nM)	3.5 (≈ 5.5 nM)	3.3 (≈ 5.18 nM)					
COc1c(C)cc2c(c1OC(C)=O)[C@@H]1[C@@H]3Cc4c(OC(C)=O)c(C)c5c(c4[C@H](CN4C(=O)c6ccccc6C4=O)N3[C@@H](C#N)[C@H](C2)N1C)OCO5	40 (≈ 57.7 nM)	8.3 (≈ 12 nM)	20 (≈ 28.9 nM)	17 (≈ 24.5 nM)					
COc1c(C)c(Br)c2c(c1O)[C@@H]1[C@@H]3Cc4c(OC(C)=O)c(C)c5c(c4[C@H](CN4C(=O)c6ccccc6C4=O)N3[C@@H](C#N)[C@H](C2)N1C)OCO5	4.7 (≈ 6.44 nM)	0.47 (≈ 0.644 nM)	1.3 (≈ 1.78 nM)	2 (≈ 2.74 nM)					
COc1c(C)cc2c(c1O)[C@@H]1[C@@H]3Cc4c(O)c(C)c5c(c4[C@H](CNC(=O)Cc4ccc(OC(C)=O)cc4)N3[C@@H](C#N)[C@H](C2)N1C)OCO5	> 100	> 100	> 100	> 100					
COc1c(C)cc2c(c1O)[C@@H]1[C@@H]3CC4=C(C(=O)C(O)=C(C)C4=O)[C@H](CN4C(=O)c5ccccc5C4=O)N3[C@@H](C#N)[C@H](C2)N1C	48 (≈ 80.7 nM)	2.1 (≈ 3.53 nM)	13 (≈ 21.9 nM)	9 (≈ 15.1 nM)					
COc1c(C)cc2c(c1O)[C@@H]1[C@@H]3Cc4c(OC(C)=O)c(C)c5c(c4[C@H](CN4C(=O)c6ccccc6C4=O)N3[C@@H](C#N)[C@H](C2)N1C)OCO5	0.67 (≈ 1.03 nM)	0.13 (≈ 0.2 nM)	0.39 (≈ 0.599 nM)	0.34 (≈ 0.523 nM)					
COc1c(C)c(Cl)c2c(c1O)[C@@H]1[C@@H]3Cc4c(OC(C)=O)c(C)c5c(c4[C@H](CN4C(=O)c6ccccc6C4=O)N3[C@@H](C#N)[C@H](C2)N1C)OCO5	1.9 (≈ 2.77 nM)	0.24 (≈ 0.35 nM)	0.7 (≈ 1.02 nM)	0.73 (≈ 1.07 nM)					
COC1=C(C)C(=O)C2=C(C1=O)[C@H](CN1C(=O)c3ccccc3C1=O)N1[C@@H](C#N)[C@@H]3Cc4cc(C)c(OC)c(O)c4[C@H]([C@@H]1C2)N3C	> 100	9 (≈ 14.8 nM)	24 (≈ 39.4 nM)	22 (≈ 36.1 nM)					
COc1c(C)cc2c(c1O)[C@@H]1[C@@H]3Cc4c(OC(C)=O)c(C)c5c(c4[C@H](CN4C(=O)c6ccccc6C4=O)N3[C@@H](C#N)[C@H](C2)N1C)OCO5 [Compound 7]					0.62 (≈ 0.953 nM)	0.11 (≈ 0.169 nM)	0.25 (≈ 0.384 nM)	0.36 (≈ 0.553 nM)	IC50 [1, 9]: 0.62 ng/mL (≈ 0.953 nM); IC50 A375 ([2]; Table 6, A-ring substitution at X2, melanoma): 0.11 ng/mL (≈ 0.169 nM); IC50 [3, 13]: 0.25 ng/mL (≈ 0.384 nM); IC50 PC-3 ([4]; Table 6, A-ring substitution at X2, prostate): 0.36 ng/mL (≈ 0.553 nM)
COc1c(C)cc2c(c1O)[C@@H]1[C@@H]3Cc4c(OC(C)=O)c(C)c5c(c4[C@H](CN4C(=O)c6ccc(N)cc6C4=O)N3[C@@H](C#N)[C@H](C2)N1C)OCO5 [Compound 20]					14 (≈ 21 nM)	0.79 (≈ 1.19 nM)	2.1 (≈ 3.15 nM)	2 (≈ 3 nM)	
COc1c(C)cc2c(c1O)[C@@H]1[C@@H]3Cc4c(OC(C)=O)c(C)c5c(c4[C@H](COC(=O)Nc4ccccc4)N3[C@@H](C#N)[C@H](C2)N1C)OCO5 [Compound 22]					4.5 (≈ 7.02 nM)	1.9 (≈ 2.97 nM)	2.3 (≈ 3.59 nM)	2.6 (≈ 4.06 nM)	
COc1c(C)cc2c(c1O)[C@@H]1[C@@H]3Cc4c(OC(C)=O)c(C)c5c(c4[C@H](CN4Cc6ccccc6C4=O)N3[C@@H](C#N)[C@H](C2)N1C)OCO5 [Compound 27]					7.2 (≈ 11.3 nM)	0.71 (≈ 1.12 nM)	2.2 (≈ 3.46 nM)	1.7 (≈ 2.67 nM)	
COc1c(C)cc2c(c1O)[C@@H]1[C@@H]3Cc4c(OC(C)=O)c(C)c5c(c4[C@H](CN4C(=O)c6ccccc6C4O)N3[C@@H](C#N)[C@H](C2)N1C)OCO5 (some centres unmarked) [Compound 28]					22 (≈ 33.7 nM)	0.79 (≈ 1.21 nM)	2.4 (≈ 3.68 nM)	2.7 (≈ 4.14 nM)	
COc1c(C)cc2c(c1O)[C@@H]1[C@@H]3Cc4c(OC(C)=O)c(C)c5c(c4[C@H](CN4C(=O)c6ccncc6C4=O)N3[C@@H](C#N)[C@H](C2)N1C)OCO5 [Compound 32]					11 (≈ 16.9 nM)	0.36 (≈ 0.552 nM)	2.1 (≈ 3.22 nM)	37 (≈ 56.8 nM)	
COc1c(C)cc2c(c1O)[C@@H]1[C@@H]3Cc4c(OS(C)(=O)=O)c(C)c5c(c4[C@H](CN4C(=O)c6ccccc6C4=O)N3[C@@H](C#N)[C@H](C2)N1C)OCO5 [Compound 44]									IC50 ([1]; A549, read-out: IC50 A-549): 1.2 ng/mL (≈ 1.75 nM); IC50 ([2]; A-375, read-out: IC50 A375): 0.2 ng/mL (≈ 0.291 nM); IC50 ([3]; HCT-116, read-out: IC50 HCT 116): 0.4 ng/mL (≈ 0.582 nM); IC50 ([4]; read-out: IC50 PC-3): 0.59 ng/mL (≈ 0.859 nM)
C=CCOc1c(C)c2c(c3c1C[C@H]1[C@H]4c5c(cc(C)c(OC)c5O)C[C@@H]([C@H](C#N)N1[C@H]3CN1C(=O)c3ccccc3C1=O)N4C)OCO2 [Compound 45]									IC50 [1, 9]: 5.2 ng/mL (≈ 8.02 nM); IC50 [2, 15]: 0.98 ng/mL (≈ 1.51 nM); IC50 [3, 13]: 2.1 ng/mL (≈ 3.24 nM); IC50 [4, 16]: 3.1 ng/mL (≈ 4.78 nM)
COc1c(C)cc2c(c1O)[C@@H]1[C@@H]3Cc4c(O)c(C)c5c(c4[C@H](CN4C(=O)c6ccccc6C4=O)N3[C@@H](C#N)[C@H](C2)N1C)OCO5 [Compound 48]									IC50 [1, 9]: 30 ng/mL (≈ 49.3 nM); IC50 [2, 15]: 2.5 ng/mL (≈ 4.11 nM); IC50 [3, 13]: 6 ng/mL (≈ 9.86 nM); IC50 [4, 16]: 7.7 ng/mL (≈ 12.7 nM)
COc1c(C)cc2c(c1O)[C@@H]1[C@@H]3Cc4c(OC(C)=O)c(C)c5c(c4[C@H](CNC(=O)Cc4ccc(O)cc4)N3[C@@H](C#N)[C@H](C2)N1C)OCO5 [Compound 56]					> 100	6.5 (≈ 9.93 nM)	20 (≈ 30.5 nM)	24 (≈ 36.7 nM)	
COc1c(C)cc2c(c1O)[C@@H]1[C@@H]3Cc4c(OC(C)=O)c(C)c5c(c4[C@H](CNC(=O)c4ccccc4)N3[C@@H](C#N)[C@H](C2)N1C)OCO5 [Compound 63]									IC50 ([1]; A549, read-out: IC50 Lung): 2 ng/mL (≈ 3.2 nM); IC50 ([2]; A-375, read-out: IC50 Melanoma): 0.22 ng/mL (≈ 0.352 nM); IC50 ([3]; HCT-116, read-out: IC50 Colon): 0.37 ng/mL (≈ 0.592 nM); IC50 ([4]; read-out: IC50 Prostate): 0.4 ng/mL (≈ 0.64 nM)
CNC(=O)Oc1c(C)c2c(c3c1C[C@H]1[C@H]4c5c(cc(C)c(OC)c5O)C[C@@H]([C@H](C#N)N1[C@H]3CN1C(=O)c3ccccc3C1=O)N4C)OCO2 [Compound 66]									IC50 ([1]; A549, Table 7, additional analogs, read-out: IC50 Lung): 8.6 ng/mL (≈ 12.9 nM); IC50 ([2]; A-375, Table 7, additional analogs, read-out: IC50 Melanoma): 0.92 ng/mL (≈ 1.38 nM); IC50 ([3]; HCT-116, Table 7, additional analogs, read-out: IC50 Colon): 1.3 ng/mL (≈ 1.95 nM); IC50 ([4]; Table 7, additional analogs, read-out: IC50 Prostate): 2.1 ng/mL (≈ 3.15 nM)
